Measured values: US20120115128A1, “SELECTIVE PROTEIN LABELING” (THE BOARD OF TRUSTEES OF THE UNIVERSITY OF ILLINOIS, priority 2009, published 2012)
In brackets after ≈: the same amount, converted by molar mass. Like-named read-outs stand apart in the source and are kept apart here.

How the values were obtained:
E. coli (strain DH5α) = assay: E. coli growth inhibition assay (MIC on agar plates); assay type: cell-based; conditions: for MIC: Escherichia coli, read-out: minimum inhibitory concentration (MIC)
Excerpt: E. coli growth inihibition assay. […] The minimal inhibitory concentration (MIC) was reported as the lowest concentration at which no colonies formed.

[1] = test system: nucleus-targeted pfDHFR (K27E, C59R, S108N) soluble domain in NIH 3T3 fibroblast cells; conditions: 500 nM, ca. 15 minutes
eDHFR = target: T1, eDHFR (Escherichia coli, UniProt P0ABQ4); assay: biochemical; parameters: species or system E. coli; conditions: terbium-complexed probe 20 nM, purified eDHFR-GFP, non-linear least-squares fit; read-out: dissociation constant for binding to eDHFR
T1 construct: pRSETb-EGFP-eDHFR expressed the protein fusion […]-[EGFP]-GSGGSG-[eDHFR]; His6 leader of pRSETb ([…]) (N); made in house; host or cells: E. coli BL21 DE3 (pLysS)

[2] = target: eDHFR expressed on the cell surface of NIH3T3 fibroblasts (Escherichia coli, UniProt P0ABQ4); assay: Labeling of cell surface-expressed eDHFR (pDisplay-eDHFR) on NIH3T3 fibroblasts, microscopy; assay type: cell-based; conditions: 1 μM, 10 min, time-resolved imaging
human cells = conditions: cited from earlier work
human leukocytes = conditions: cited from earlier work
[3] = target: T2, GFP-cldn1/tail (N-terminal fusion of EGFP to the C-terminal cytoplasmic domain, residues 187-211, of human … (human, UniProt O95832 187-211, not fully specified)); assay: intermolecular TR-FRET microscopy in living MDCK cells; reference pair ZO-1/PDZ1-eDHFR and GFP-cldn1/tailΔYV
T2 construct: Expressed in living MDCK cells; GFP is the FRET acceptor; also called C-terminal cytoplasmic tail of claudin-1; not shown: enhanced GFP (EGFP) as encoded in vector pEGFP-C1 (Clontech)
T2 chain (looked up): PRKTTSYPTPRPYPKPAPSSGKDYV

[4] = target: T2, GFP-cldn1/tail (N-terminal fusion of …); assay: intermolecular TR-FRET microscopy in living MDCK cells; sensitized GFP emission at 520 nm
[5] = target: GFP-cldn1/tailΔYV (GFP-cldn1/tail construct lacking the C-terminal YV motif) (human) (UniProt O95832); assay: as above

Molecule: COc1cc(Cc2cnc(N)nc2N)cc(C#CCCCC(=O)O)c1OCCCCC(=O)NCCOCCOCCN [Compound 3a]
- ability to cross the E. coli cell membrane (inferred from growth assay) (E. coli (strain DH5α)): cannot cross the cell membrane
- MIC (E. coli (strain DH5α); 24 h): > 100 µM

Molecule: CCOc1cc(Cc2cnc(N)nc2N)ccc1OCc1cc(OC)c(OCCCCC(=O)NCCOCCOCCNC(=O)OC(C)(C)C)c(OC)c1 [Compound 2a]
- cell permeability (diffuse fluorescence) [1]: passively diffused into mammalian cells
- MIC (E. coli (strain DH5α); 37° C., 24 hours, lowest concentration at which no colonies formed): ~20 µM (≈ 15.1 µg/mL)

Molecule: COc1cc(Cc2cnc(N)nc2N)cc(OC)c1OCCCCC(=O)NCCOCCOCCNC(=O)CN(CCN(CCN(CC(=O)O)CC(=O)Nc1ccc2c(C)cc(=O)[nH]c2c1)CC(=O)O)CC(=O)O [TMP-cDTPA]
- Kd (eDHFR): 9 ± 1.3 nM
- cell-surface labelling of eDHFR, time-resolved mode [2]: not

Molecule: CN(Cc1cnc2nc(N)nc(N)c2n1)c1ccc(C(=O)N[C@@H](CCC(=O)O)C(=O)O)cc1 [MTX, Methotrexate]
- extracellular concentration at which DNA damage has been observed (human cells): 10 µM
- concentration at which toxicity observed (human leukocytes): 2000 nM

B1: ZO-1/PDZ1-eDHFR (C-terminal fusion of eDHFR to the PDZ1 domain, residues 19-113, of human ZO-1) (other, human;Escherichia coli)
chain: MWEQHTVTLHRAPGFGFGIAISGGRDNPHFQSGETSIVISDVLKGGPAEGQLQENDRVAMVNGVSMDNVEHAFAVQQLRKSGKNAKITIRRKKKVQMISLIAALAVDRVIGMENAMPWNLPADLAWFKRNTLNKPVIMGRHTWESIGRPLPGRKNIILSSQPGTDDRVTWVKSVDEAIAACGDVPEIMVIGGGRVYEQFLPKAQKLYLTHIDAEVEGDTHFPDYEPDDWESVFSEFHDADAQNSHSYCFEILERR
notes: Built by inserting ZO-1 19-113 into pLL-1NLS in frame with eDHFR; also called PDZ1 domain of ZO-1
- fold difference in TR-FRET signal against GFP-cldn1/tailΔYV [3]: > 4 fold
- signal-to-noise ratio for intermolecular TR-FRET [4]: 6.3
- signal-to-noise ratio for intermolecular TR-FRET [5]: 1.5
